Measurements published in patent publication US9920057B2, “Substituted pyrazino[1′,2′:1 ,6]pyrido[3,4-b]indoles as phosphodiesterase type 5 inhibitors” (Chongqing University of Arts and Sciences, priority 2015, dated 2018).
“And” between values parts separate entries of the source, which are not always exact repeats. Identical values can stand only once. Like-named read-outs stand apart in the source and are kept apart here.

How the values were obtained:
[1] = Study on pharmacokinetics in rats, oral administration; format: in vivo, SD rat; details: oral 10.0 mg · kg^−1
Procedure: Sample Preparation Method: One step protein precipitation
Precipitant: ACN, with concentration of Verapamil (5.00 ng·mL-1)
Calibration Curve and QC samples Preparation: 5.00 μL each of the calibration or QC working solution and 45.0 μL of blank plasma were transferred into a 1.5-mL microcentrifuge tube. Final standard curve concentration levels were 1.00, 2.50, 5.00, 10.0, 50.0, 100, 500 and 1000 ng·mL-1. The QC concentration levels were 2.50 or 5.00, 50.0 and 800 ng·mL-1. Dilution QC was 5000 ng·mL-1.
Plasma Samples Preparation: Aliquots of 10.0 μL of real samples, calibration curve samples and QC samples were supplemented with 100 μL of precipitant. After vortexed for 3.00 min and centrifuged at 12000 rpm for 5.00 min, the supernatant 10 μL was injected for LC-MS/MS analysis.
Number of Rats/Group: 3/group
Administration Route: oral administration
Blood Collection Time: 0 min, 15 min, 30 min, 1 h, 2 h, 4 h, 6 h, 8 h, 24 h

[2] = background statement; cited from earlier work
[3] = system: normal rat; assay: Erectile function of normal rat: blood pressure, intracavernous pressure and detumescence time on cavernous nerve stimulation; format: in vivo; details: reference group (Calais), dose not stated
Procedure: Rats were anesthetized with 2% pentobarbital […], then incision was made in the right side of neck, a PE-50 silicon tube connected with a pressure transducer was inserted into the carotid artery, to record the change of the blood pressure.
The erectile activity was induced by a bipolar stainless-steel, stimulus parameters at a pulse width of […], stimulation frequency of 7.98 Hz, current of 3 mA, stimulation duration of 40 s, and then record the intracavernous pressure (ICP).
Assessment of erectile function: ICP, BP, change of ICP and detumescence time were monitored though electric cavernous nerve stimulation at 2, 6 and 24 hours post dosing. Erectile function was evaluated by change of ICP and detumescence time.

[4] = molecular target: T1, PDE7A (Homo sapiens, UniProt Q13946); assay: Inhibition of PDE activity (assay kit); format: biochemical
T1 construct: purchased
Procedure: (§1) i. Supplement 99 μl assay buffer per well, then add 1 μl compound in DMSO dilution to wells of V96 MicroWell Plates and uniformly mix;
(§2) ii. Add 5 μl compound in assay buffer dilution to each well of 96-well microplate;
(§3) the final concentration of compound as below:
(§4) The inhibitory potential of test compounds on several types of phosphodiesterase (PDE) activity is determined according to the protocol of assay kit.

[5] = molecular target: T2, PDE3A (Homo sapiens, UniProt Q14432); assay: Inhibition of PDE activity (assay kit); format: biochemical
T2 construct: purchased
Procedure: as §1, §2, §3, §4

[6] = molecular target: T3, PDE2A (Homo sapiens, UniProt O00408); assay: Inhibition of PDE activity (assay kit); format: biochemical
T3 construct: purchased
Procedure: as §1, §2, §3, §4

[7] = molecular target: T4, PDE1A (Homo sapiens, UniProt P54750); assay: Inhibition of PDE activity (assay kit); format: biochemical
T4 construct: purchased
Procedure: as §1, §2, §3, §4

T2 sequence (Q14432 whole entry): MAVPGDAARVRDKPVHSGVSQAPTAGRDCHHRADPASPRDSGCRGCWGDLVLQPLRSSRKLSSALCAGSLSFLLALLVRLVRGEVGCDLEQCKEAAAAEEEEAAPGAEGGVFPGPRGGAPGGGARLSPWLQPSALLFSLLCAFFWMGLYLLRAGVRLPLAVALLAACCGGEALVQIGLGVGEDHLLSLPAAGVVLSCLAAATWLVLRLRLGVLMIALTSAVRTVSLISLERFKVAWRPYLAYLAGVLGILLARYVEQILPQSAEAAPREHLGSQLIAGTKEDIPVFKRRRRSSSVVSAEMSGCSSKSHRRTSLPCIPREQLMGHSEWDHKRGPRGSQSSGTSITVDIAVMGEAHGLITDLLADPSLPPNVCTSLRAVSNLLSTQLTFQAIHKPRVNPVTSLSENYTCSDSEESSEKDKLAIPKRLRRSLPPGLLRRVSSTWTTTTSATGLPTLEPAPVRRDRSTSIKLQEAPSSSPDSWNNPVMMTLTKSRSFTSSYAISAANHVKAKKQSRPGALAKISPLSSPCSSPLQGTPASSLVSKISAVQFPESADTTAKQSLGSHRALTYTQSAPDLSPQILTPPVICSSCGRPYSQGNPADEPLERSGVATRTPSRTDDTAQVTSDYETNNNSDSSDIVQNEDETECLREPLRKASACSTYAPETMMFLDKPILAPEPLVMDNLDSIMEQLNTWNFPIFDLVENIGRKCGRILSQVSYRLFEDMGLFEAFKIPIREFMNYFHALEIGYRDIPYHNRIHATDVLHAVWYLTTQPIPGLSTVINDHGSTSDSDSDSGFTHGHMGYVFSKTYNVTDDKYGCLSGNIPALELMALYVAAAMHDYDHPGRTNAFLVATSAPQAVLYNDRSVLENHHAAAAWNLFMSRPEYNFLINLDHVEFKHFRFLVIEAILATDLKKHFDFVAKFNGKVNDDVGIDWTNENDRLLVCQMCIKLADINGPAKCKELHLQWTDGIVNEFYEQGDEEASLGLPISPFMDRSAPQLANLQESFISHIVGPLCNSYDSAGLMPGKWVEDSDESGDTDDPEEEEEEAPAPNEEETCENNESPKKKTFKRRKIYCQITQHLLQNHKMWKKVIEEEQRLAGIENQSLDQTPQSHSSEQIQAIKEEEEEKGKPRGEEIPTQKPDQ
T3 sequence (O00408 whole entry): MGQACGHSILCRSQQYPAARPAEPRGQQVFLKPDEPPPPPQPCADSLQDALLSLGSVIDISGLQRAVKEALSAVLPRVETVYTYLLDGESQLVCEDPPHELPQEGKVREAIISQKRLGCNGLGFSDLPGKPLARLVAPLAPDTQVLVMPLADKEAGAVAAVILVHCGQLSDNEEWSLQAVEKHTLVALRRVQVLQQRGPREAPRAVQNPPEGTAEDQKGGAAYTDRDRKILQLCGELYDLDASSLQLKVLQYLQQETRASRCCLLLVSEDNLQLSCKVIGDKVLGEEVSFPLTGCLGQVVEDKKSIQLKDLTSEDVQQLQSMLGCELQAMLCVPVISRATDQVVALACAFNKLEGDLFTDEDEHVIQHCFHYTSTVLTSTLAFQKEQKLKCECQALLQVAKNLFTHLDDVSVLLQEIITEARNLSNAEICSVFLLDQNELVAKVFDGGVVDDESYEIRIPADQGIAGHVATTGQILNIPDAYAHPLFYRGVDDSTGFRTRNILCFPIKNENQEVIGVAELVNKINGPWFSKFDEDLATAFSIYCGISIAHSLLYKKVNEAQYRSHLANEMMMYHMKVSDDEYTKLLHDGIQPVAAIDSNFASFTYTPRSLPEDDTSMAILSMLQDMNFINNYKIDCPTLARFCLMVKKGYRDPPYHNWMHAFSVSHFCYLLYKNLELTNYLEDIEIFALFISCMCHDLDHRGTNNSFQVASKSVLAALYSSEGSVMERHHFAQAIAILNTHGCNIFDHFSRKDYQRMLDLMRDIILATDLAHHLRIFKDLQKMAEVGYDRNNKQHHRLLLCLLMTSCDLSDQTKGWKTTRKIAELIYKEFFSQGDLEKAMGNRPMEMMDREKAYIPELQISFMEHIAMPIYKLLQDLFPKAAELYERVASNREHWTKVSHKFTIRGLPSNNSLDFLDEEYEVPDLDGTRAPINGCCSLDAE
T1 sequence (Q13946 whole entry): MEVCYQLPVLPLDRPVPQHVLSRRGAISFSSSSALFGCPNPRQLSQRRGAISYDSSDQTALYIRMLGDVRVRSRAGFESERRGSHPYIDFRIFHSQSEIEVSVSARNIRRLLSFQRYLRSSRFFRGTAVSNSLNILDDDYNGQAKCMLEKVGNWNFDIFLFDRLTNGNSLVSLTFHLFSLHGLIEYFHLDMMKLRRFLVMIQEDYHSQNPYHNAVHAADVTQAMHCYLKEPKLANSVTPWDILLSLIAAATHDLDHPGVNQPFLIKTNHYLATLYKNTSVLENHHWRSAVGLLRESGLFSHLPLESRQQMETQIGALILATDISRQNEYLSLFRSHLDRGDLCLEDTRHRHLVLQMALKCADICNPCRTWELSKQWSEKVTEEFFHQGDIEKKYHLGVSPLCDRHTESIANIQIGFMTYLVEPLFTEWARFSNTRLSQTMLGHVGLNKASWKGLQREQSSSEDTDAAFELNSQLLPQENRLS
T4 sequence (P54750 whole entry): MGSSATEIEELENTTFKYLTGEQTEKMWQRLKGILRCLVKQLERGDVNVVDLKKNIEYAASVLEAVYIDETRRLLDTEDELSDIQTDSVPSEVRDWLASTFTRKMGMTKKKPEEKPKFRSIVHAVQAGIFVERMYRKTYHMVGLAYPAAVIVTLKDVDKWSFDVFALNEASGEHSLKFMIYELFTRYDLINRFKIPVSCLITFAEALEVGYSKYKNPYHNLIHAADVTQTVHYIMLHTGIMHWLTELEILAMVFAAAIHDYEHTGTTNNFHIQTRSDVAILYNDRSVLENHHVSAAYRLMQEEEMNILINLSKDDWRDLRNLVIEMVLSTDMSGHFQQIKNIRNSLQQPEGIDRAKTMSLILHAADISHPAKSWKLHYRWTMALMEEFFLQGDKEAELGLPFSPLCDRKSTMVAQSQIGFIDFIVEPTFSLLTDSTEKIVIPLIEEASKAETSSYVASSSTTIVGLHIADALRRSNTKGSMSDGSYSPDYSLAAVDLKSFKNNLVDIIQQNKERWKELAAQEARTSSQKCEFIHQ

AUMC0-inf ([1]; Mean of 3 rats): 54240 h · h · ng · mL^−1
AUMC0-t ([1]; Mean of 3 rats): 52702 h · h · ng · mL^−1
Kel ([1]; Mean of 3 rats): 0.248 h⁻¹
MRTPO ([1]; Mean of 3 rats): 6.07 h
half-life ([1]; SD, rat, plasma, po, 10 mg/kg, Mean of 3 rats): 2.99 h
AUC0-inf ([1]; SD, rat, plasma, po, 10 mg/kg, Mean of 3 rats, read-out: AUC0-inf): 8860 ng·h/mL
AUC0-t ([1]; SD, rat, plasma, po, 10 mg/kg, Mean of 3 rats, read-out: AUC0-t): 8810 ng·h/mL
Cmax ([1]; SD, rat, plasma, po, 10 mg/kg, Mean of 3 rats, read-out: Cmax): 926 ng/mL
half-life ([1]; SD, rat, plasma, po, 10 mg/kg, individual rats): 3.46 h
AUC0-inf ([1]; SD, rat, plasma, po, 10 mg/kg, individual rats, read-out: AUC0-inf): 8810 ng·h/mL
AUC0-t ([1]; SD, rat, plasma, po, 10 mg/kg, individual rats, read-out: AUC0-t): 8720 ng·h/mL
Tmax ([1]; SD, rat, plasma, individual rats): 4 h
Kel ([1]; individual rats): 0.200 h⁻¹ and 0.197 h⁻¹ and 0.346 h⁻¹
MRTPO ([1]; individual rats): 6.40 h and 5.69 h and 6.13 h
t1/2 ([1]; individual rats): 3.51 h and 2.00 h
IC50 [4]: > 10 µM
IC50 [5]: > 10 µM
IC50 [6]: > 10 µM
IC50 [7]: > 10 µM
SMILES: CN1CC(=O)N2[C@H](c3ccc4c(c3)OCO4)c3[nH]c4ccccc4c3C[C@@H]2C1=O [Cialis]
AUC0-inf ([1]; individual rats): 6051 ng·h/mL and 11729 ng·h/mL
AUC0-t ([1]; individual rats): 5993 ng·h/mL and 11723 ng·h/mL
AUMC0-inf ([1]; individual rats): 56364 h · h · ng · mL^−1 and 34440 h · h · ng · mL^−1 and 71915 h · h · ng · mL^−1
AUMC0-t ([1]; individual rats): 53611 h · h · ng · mL^−1 and 32747 h · h · ng · mL^−1 and 71748 h · h · ng · mL^−1
Cmax ([1]; individual rats): 747 ng/mL and 676 ng/mL and 1356 ng/mL
half-life in body [2]: 24 to 36 h
BP after stimulation ([3]; 2 hours after dosing): 64.14 ± 9.86 mmHg
BP before stimulation ([3]; 2 hours after dosing): 100.98 ± 4.48 mmHg
Change of BP ([3]; 2 hours after dosing): 36.85 ± 7.34 mmHg
Change of ICP ([3]; 2 hours after dosing): 31.82 ± 7.63 mmHg
Detumescence Time ([3]; 2 hours after dosing): 40.50 ± 21.14 s
ICP after stimulation ([3]; 2 hours after dosing): 39.19 ± 8.58 mmHg
ICP before stimulation ([3]; 2 hours after dosing): 7.38 ± 1.75 mmHg
BP after stimulation ([3]; 6 hours after dosing): 58.14 ± 14.30 mmHg
BP before stimulation ([3]; 6 hours after dosing): 91.20 ± 28.48 mmHg
Change of BP ([3]; 6 hours after dosing): 33.07 ± 17.13 mmHg
Change of ICP ([3]; 6 hours after dosing): 34.15 ± 6.99 mmHg
Detumescence Time ([3]; 6 hours after dosing): 44.25 ± 13.35 s
ICP after stimulation ([3]; 6 hours after dosing): 41.76 ± 6.49 mmHg
ICP before stimulation ([3]; 6 hours after dosing): 7.61 ± 1.53 mmHg
BP after stimulation ([3]; 24 hours after dosing): 78.00 ± 2.68 mmHg
Change of BP ([3]; 24 hours after dosing): 34.26 ± 7.18 mmHg
Change of ICP ([3]; 24 hours after dosing): 35.38 ± 4.55 mmHg
Detumescence Time ([3]; 24 hours after dosing): 41.25 ± 10.34 s
ICP after stimulation ([3]; 24 hours after dosing): 43.01 ± 6.19 mmHg
ICP before stimulation ([3]; 24 hours after dosing): 7.63 ± 4.03 mmHg
